Results from publication PMC4685510, “A Cell Biologist’s Field Guide to Aurora Kinase Inhibitors” (Frontiers in Oncology, 2015).

Columns and labels:
Assay in all cases: biochemical
Type in all cases: biochemical
[1] = target: T1, 363 human kinases (including Aurora A/B/C) (Homo sapiens, UniProt Q6P3R8); details: NEK5; for remaining activity at 0.1 µM: 100 nM; for remaining activity at 0.1 µM / remaining activity at 0.5 µM: read-out: % Enzyme Activity (relative to DMSO controls)
T1 sequence (Q6P3R8 1-708): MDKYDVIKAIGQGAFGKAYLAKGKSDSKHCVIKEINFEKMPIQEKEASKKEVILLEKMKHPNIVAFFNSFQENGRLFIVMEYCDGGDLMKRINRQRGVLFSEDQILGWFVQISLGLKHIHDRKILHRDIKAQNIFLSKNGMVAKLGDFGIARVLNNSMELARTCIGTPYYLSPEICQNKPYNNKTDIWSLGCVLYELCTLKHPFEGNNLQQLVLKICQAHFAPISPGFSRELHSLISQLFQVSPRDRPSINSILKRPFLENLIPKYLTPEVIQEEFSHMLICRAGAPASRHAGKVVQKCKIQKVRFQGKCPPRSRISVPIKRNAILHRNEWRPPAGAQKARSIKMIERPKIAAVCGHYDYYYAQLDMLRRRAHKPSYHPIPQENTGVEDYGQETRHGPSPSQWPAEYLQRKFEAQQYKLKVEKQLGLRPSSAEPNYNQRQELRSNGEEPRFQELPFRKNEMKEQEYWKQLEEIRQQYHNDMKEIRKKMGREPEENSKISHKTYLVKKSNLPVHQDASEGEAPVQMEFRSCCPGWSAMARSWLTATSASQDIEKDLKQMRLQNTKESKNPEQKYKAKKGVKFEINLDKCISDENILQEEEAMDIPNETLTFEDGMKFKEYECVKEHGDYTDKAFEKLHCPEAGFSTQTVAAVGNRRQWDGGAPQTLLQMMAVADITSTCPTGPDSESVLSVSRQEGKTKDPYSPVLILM
From the text: (§1) However, the Aurora A/B selectivity ratios derived from our in vitro and in vivo data can be compared to prioritize inhibitors.

[2] = target: T2, 363 human kinases (including Aurora A/B/C) (Homo sapiens, UniProt P51813); details: BMX/ETK, [ATP] 50 µM; for remaining activity at 0.1 µM: 100 nM; for remaining activity at 0.1 µM / remaining activity at 0.5 µM: read-out: % Enzyme Activity (relative to DMSO controls)
T2 sequence (P51813 1-675): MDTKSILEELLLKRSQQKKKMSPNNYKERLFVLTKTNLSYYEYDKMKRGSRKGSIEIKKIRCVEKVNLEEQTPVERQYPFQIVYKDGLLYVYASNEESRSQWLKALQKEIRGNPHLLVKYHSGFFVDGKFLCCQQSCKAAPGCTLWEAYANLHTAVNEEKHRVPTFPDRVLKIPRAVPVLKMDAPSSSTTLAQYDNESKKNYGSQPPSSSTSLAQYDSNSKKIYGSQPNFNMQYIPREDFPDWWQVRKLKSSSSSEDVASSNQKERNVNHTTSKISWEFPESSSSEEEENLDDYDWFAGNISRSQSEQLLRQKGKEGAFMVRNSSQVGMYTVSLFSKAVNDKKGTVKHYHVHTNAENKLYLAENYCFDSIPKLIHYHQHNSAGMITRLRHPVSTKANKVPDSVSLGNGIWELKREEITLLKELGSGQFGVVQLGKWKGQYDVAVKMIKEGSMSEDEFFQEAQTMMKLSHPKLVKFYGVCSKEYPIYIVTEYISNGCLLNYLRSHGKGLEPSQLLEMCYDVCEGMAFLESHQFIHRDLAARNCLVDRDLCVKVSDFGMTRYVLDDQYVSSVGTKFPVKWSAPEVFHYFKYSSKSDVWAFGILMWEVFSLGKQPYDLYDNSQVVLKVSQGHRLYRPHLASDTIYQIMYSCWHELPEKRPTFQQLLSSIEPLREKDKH
From the text: as §1

[3] = target: T3, 363 human kinases (including Aurora A/B/C) (Homo sapiens, UniProt Q8WXR4); details: MYO3b; for remaining activity at 0.1 µM: 100 nM; for remaining activity at 0.1 µM / remaining activity at 0.5 µM: read-out: % Enzyme Activity (relative to DMSO controls)
T3 sequence (Q8WXR4 1-1341): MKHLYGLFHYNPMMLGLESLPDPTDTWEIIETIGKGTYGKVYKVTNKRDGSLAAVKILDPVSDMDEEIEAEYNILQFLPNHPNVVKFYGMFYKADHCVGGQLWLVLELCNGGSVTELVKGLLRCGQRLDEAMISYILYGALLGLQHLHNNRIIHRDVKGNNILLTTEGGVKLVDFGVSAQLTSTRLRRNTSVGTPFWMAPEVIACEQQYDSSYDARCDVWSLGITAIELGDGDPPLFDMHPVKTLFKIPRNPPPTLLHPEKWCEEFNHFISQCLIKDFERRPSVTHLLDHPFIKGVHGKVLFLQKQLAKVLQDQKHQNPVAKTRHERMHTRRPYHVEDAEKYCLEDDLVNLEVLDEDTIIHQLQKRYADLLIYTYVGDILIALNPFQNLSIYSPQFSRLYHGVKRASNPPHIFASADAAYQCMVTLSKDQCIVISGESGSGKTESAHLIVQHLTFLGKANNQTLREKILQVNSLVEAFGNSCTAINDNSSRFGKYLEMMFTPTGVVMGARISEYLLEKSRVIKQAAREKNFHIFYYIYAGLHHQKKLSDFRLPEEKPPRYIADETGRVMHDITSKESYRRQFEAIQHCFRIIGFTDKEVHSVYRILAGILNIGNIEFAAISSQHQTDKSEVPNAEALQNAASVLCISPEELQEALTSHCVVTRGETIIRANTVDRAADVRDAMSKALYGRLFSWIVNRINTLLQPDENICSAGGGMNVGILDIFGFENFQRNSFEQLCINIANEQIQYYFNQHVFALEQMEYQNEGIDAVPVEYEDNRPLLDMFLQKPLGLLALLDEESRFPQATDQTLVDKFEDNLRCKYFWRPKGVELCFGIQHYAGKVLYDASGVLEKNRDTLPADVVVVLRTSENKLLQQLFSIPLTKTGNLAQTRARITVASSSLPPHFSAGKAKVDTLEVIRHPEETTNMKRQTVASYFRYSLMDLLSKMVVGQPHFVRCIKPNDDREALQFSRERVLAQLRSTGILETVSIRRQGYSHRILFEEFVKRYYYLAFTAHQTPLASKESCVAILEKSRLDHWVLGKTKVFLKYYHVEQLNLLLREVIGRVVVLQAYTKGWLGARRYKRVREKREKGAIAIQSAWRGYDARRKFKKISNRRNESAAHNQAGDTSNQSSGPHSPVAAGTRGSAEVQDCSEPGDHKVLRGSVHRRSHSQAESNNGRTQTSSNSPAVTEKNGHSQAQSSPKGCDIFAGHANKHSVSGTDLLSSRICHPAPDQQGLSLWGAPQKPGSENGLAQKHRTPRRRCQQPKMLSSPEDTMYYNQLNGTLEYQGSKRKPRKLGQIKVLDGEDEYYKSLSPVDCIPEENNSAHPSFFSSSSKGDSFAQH
From the text: as §1

SMILES | remaining activity at 0.1 µM [1] | remaining activity at 0.1 µM [2] | remaining activity at 0.1 µM [3] | remaining activity at 0.5 µM ([1]; 500 nM) | remaining activity at 0.5 µM ([2]; 500 nM) | remaining activity at 0.5 µM ([3]; 500 nM) | % Enzyme Activity (relative to DMSO controls) ([1]; 500 nM) | % Enzyme Activity (relative to DMSO controls) ([2]; 500 nM) | % Enzyme Activity (relative to DMSO controls) ([3]; 500 nM)
CCn1cc(-c2ccnc3[nH]c(-c4cccc(CN(C)C)c4)cc23)c(-c2ccc(NC(=O)N(C)C)cc2)n1 [GSK1070916] | 59.1% | 96.1% | 102% | – | – | – | – | – | –
O=C(O)[C@]1(Cc2cccc(Nc3nccs3)n2)CC[C@@H](Oc2cccc(Cl)c2F)CC1 [MK-5108] | 153% | 48.1% | 99.8% | 104% | 14.2% | 100% | – | – | –
O=C(c1cccc(Cl)c1F)N1CCN(Cc2cccc(Nc3nccs3)n2)CC1 [MK-8745] | – | – | – | 130% | 90.7% | 107% | 128.29% | 88.19% | 106.69%
